Measurements reported in US12577235B2, “Crystalline form of CXCR2 antagonist and application thereof” (Shenzhen Optimum Biological Technology Co., Ltd, priority 2019, dated 2026).

How the values were obtained:
[1] = Crystalline form stability assay of crystalline form A - solvent water activity; type: physicochemical; settings: for Crystalline form (XRPD): 20° C., 4 days
Procedure: The solutions were centrifuged to give precipitates, and the precipitates were dried under vacuum at 50° C. and subjected to XRPD.

[2] = system: PPE-induced SD rat COPD model; assay: Therapeutic effect on PPE-induced COPD model; type: in vivo, SD rats; settings: dose not stated (technical effects summary)
Text: • To test the therapeutic effect of the compound on PPE-induced SD rat COPD model. Materials: • Animals: SD rats (male, 160-180 g, 6 weeks age) • Test compounds: porcine pancreatic elastase (Sigma, 0.068 U/μL); Danirixin, compound 1. • Grouping: 1) vehicle group • 2) COPD model group (porcine pancreatic elastase modeling group/solvent group) • 3) PPE+Danirixin (30 mpk) • 4) PPE+compound 1 (10 mpk) • 5) PPE+compound 1 (30 mpk) Procedures: • 1. Modeling: PPE was given retrolingually. • 2. Administration: an aqueous solution of 1% DMSO/20% PEG400/79% (HP-b-CD) was used as the vehicle, and the drugs were administrated intragastrically everyday at a volume of 2 mL/rat for 4 weeks. • 3. Endpoint: On day 29, pulmonary function test, sample collection, and inflammatory cell count in bronchoalveolar lavage fluid.
Bronchoalveolar lavage: The rats were sacrificed, and dissected at the neck. Trachea intubation was performed. 1 mL of cold […] at 4° C. was infused for 3 lavages, and the lavage fluids were combined. The combined lavage fluids were centrifuged at 1200 rpm/min for 5 min, and the supernatant was discarded. The cell suspension was collected;

[3] = system: rat COPD model induced by smoking combined with lipopolysaccharide; assay: Anti-inflammation effect in rat COPD model induced by smoking combined with lipopolysaccharide; type: in vivo, SD rats
Procedure: Modeling: the animal model was prepared by exposing the rats to cigarette smoke once daily for 14 days. The rats were smoked for 90 min per day in 2 portions with a break of 10 min. 18 Marlboro cigarettes (with a tar content of 11 mg) were given each time. LPS was administered dropwise via airway at 200 μg/rat once weekly. The administration dropwise was performed on days 6 and 13 of smoke exposure (on the day of LPS administration dropwise, only LPS was administered dropwise for modeling without smoke exposure). • 2. Administration: an aqueous solution of 1% DMSO/20% PEG400/79% (HP-b-CD) was used as the vehicle, and the drugs were administrated intragastrically everyday at a volume of 5 mL/kg for 2 weeks. • 3. Endpoint: On day 15, pulmonary function test, sample collection, inflammatory cell count in bronchoalveolar lavage fluid, pathological analysis, and lung tissue MPO and MMP9 assay were carried out. Procedures of Pulmonary Function Test:
After the last smoking and modeling were finished, pulmonary function was tested for each group of animals on the second day, and pulmonary resistance and compliance were detected under stimulation of methacholine chloride at different doses. The animals were anesthetized by intraperitoneal injection with […] of 25% urethane. After the animals were deeply anesthetized, airway intubation was performed by separating airways, and meanwhile, jugular veins were separated. After breathing stably, the animals were put into a plethysmograph. Drug administration pipelines were inserted into the separated jugular veins. After the animals were in rest state for 1-2 min and the breathing curves were stable, then detection was started. Rats were administered with methacholine chloride at doses of 0, 0.0083, 0.025, 0.075, 0.225, 0.675 mg/kg by jugular vein intubation. The increase in airway resistance and decrease in pulmonary compliance were observed after each administration. After 1-2 min, the parameters returned to near the baseline of the previous concentration of methacholine chloride, and methacholine chloride of the next concentration was injected. After the detection was finished, subsequent alveolar lavage and sample collection were performed.
After the pulmonary function test was finished, the rats were sacrificed by cervical dislocation. After the animals were confirmed dead, the lungs were carefully separated, a lavage syringe was inserted into the main trachea and fixed with 2-0 silk thread. The right lung was ligated. 5 mL of low-temperature normal saline was slowly injected through the lavage syringe. The normal saline was slowly extracted after confirming that the normal saline was injected into the left lung. The operation was repeated twice. By the three lavages, a total of 15 mL of normal saline was injected for lavage. The obtained BALF was injected into a 15 mL centrifuge tube and preserved in a storage box at 4° C. for subsequent BALF cells counting.
After BALF was collected, the right lung which was not infused was taken off and weighted. The two upper lobes of the right lung were put into a cryopreservation tube, frozen in a freezer at −80° C. for later use. Lower lobe tissues were fixed in formalin.
1 mL of homogenously mixed BALF was added into 1 mL of a solution of 1% glacial acetic acid in normal saline. Cells were counted using a hemocytometer. The remaining lavage fluid was centrifuged at 1500 r/min for 10 min at 4° C. to give a cell mass. The cells were resuspended in 200 μL of normal saline, uniformly coated on a glass slide and stained by Wright-Giemsa stain. Macrophages, neutrophils and lymphocytes in a total of 200 cells were counted under a microscope, and the proportions of the cells was calculated. For lavage fluid collection, animals failing the lavage fluid collection were not summarized. […]

[4] = 10 mg/kg vs Danirixin at 30 mg/kg
[5] = 10 mg/kg, methacholine 0.025 mg/kg
[6] = 30 mg/kg vs Danirixin at 30 mg/kg
[7] = at various doses (3, 10, 30 mpk)

Stability of the crystalline form in solvents (in words) ([1]; methanol, ethanol, methanol/water, water): stable in the above solvents
Crystalline form (XRPD) ([1]; stirred in ethanol, 100 mg/mL): Crystalline form A
Crystalline form (XRPD) ([1]; stirred in methanol, 100 mg/mL): Crystalline form A
Crystalline form (XRPD) ([1]; stirred in methanol/water = 1/1.5, 100 mg/mL): Crystalline form A
Crystalline form (XRPD) ([1]; stirred in water, 100 mg/mL): Crystalline form A
SMILES: O=C(Nc1ccc(Cl)c(S(=O)(=O)[C@H]2CCCNC2)c1O)N[C@@H]1CCCc2cc(C(F)(F)F)oc21 [crystalline form A]
Number of neutrophils [2]: significantly reduce the number of neutrophils
Pulmonary function [2]: significantly improve the pulmonary function
Pulmonary function improvement and anti-inflammatory effects (summary) ([3]; 3 mg/kg): significant pulmonary function improvement and anti-inflammatory effects
Pulmonary resistance, effect relative to Danirixin ([3]; 3 mg/kg and 10 mg/kg vs Danirixin at 30 mg/kg): comparable to that of Danirixin
MPO content in lung tissues, effect relative to Danirixin ([3]; 3 mg/kg vs Danirixin at 30 mg/kg): comparable effect
Pulmonary resistance, methacholine-induced pulmonary function test ([3]; 3 mg/kg, methacholine 0.025 mg/kg): significant effects in improving the pulmonary resistance
Lung tissue pathology score, effect relative to Danirixin [3, 4]: comparable of that of Danirixin
MMP9 content in lung tissue, effect relative to Danirixin [3, 4]: comparable of that of Danirixin
Number of leukocytes in BALF, effect relative to Danirixin [3, 4]: comparable effect
Number of neutrophils in BALF, effect relative to Danirixin [3, 4]: comparable effect
Pulmonary compliance, effect relative to Danirixin [3, 4]: comparable to that of Danirixin
Pulmonary compliance, methacholine-induced pulmonary function test [3, 5]: significant effect in improving the pulmonary compliance
Pulmonary resistance, methacholine-induced pulmonary function test [3, 5]: significant effects in improving the pulmonary resistance
Lung tissue pathology score, effect relative to Danirixin [3, 6]: superior effect
MMP9 content in lung tissue, effect relative to Danirixin [3, 6]: superior effect
Lung tissue pathology score, dose dependence ([3]; 3, 10, 30 mpk): improved the pathology score in a dose-dependent manner
MMP9 content in lung tissue, dose dependence ([3]; 3, 10, 30 mpk): reduced the MMP9 content in lung tissue in a dose-dependent manner
Number of neutrophils in BALF, dose dependence ([3]; 3, 10, 30 mpk): reduced the number of neutrophils in a dose-dependent manner
Anti-inflammatory effect (summary) ([3]; Danirixin 30 mpk, crystalline form A 3-30 mpk): significant anti-inflammatory effect
Pharmacodynamic effect compared with Danirixin ([3]; at a lower dose than Danirixin): equivalent pharmacodynamic effect
Pharmacodynamic effect compared with Danirixin ([3]; at the same dose as Danirixin): superior pharmacodynamic effect
MPO content in lung tissues [3, 7]: significantly reduce the MPO content
Number of leukocytes in BALF [3, 7]: significantly reduce the number of leukocytes
Number of neutrophils in BALF ([3]; down to 3 mg/kg): significant effect
Lung tissue pathology score ([3]; down to 10 mg/kg): significant effect
MMP9 content in lung tissue ([3]; down to 10 mg/kg): significant effect
